Test results as given in ChEMBL document CHEMBL1126479, “Refinement of a molecular model of angiotensin II (AII) employed in the discovery of potent nonpeptide antagonists” (Bioorg Med Chem Lett, 1993).

How the values were obtained:
[1] = The compound was evaluated for the inhibition of [125I]- Angiotensin II (AII) binding to rat mesenteric membranes; format: cell membranes, Membrane
Oryctolagus cuniculus = species on record: Oryctolagus cuniculus; assay: The compound was evaluated for the inhibition of angiotensin II (AII) induced rabbit aorta constriction; format: functional
Rattus norvegicus = assay: The compound was evaluated for the inhibition of Angiotensin II (AII) pressor response in conscious normotensive rats; format: functional; conditions: read-out: ID50 (the source's name)

Structure (SMILES) | IC50 [1] [µM] | Kb (Oryctolagus cuniculus) [nM] | ED50 (Rattus norvegicus) [mg/kg]
CCCCc1ncc(/C=C\C(=O)O)n1Cc1ccccc1Cl | 8.9 | 810 | –
CCCCc1ncc(/C=C(/Cc2ccsc2)C(=O)O)n1Cc1ccccc1Cl | – | 51 | 3.6
CCCCc1nc(Cl)c(CC(=O)O)n1Cc1ccccc1Cl | – | 2700 | 30
CCCCc1ncc(/C=C(/Cc2ccccc2)C(=O)O)n1Cc1ccccc1Cl | 2.6 | 64 | 14
CCCCc1ncc(/C=C(/Cc2ccsc2)C(=O)O)n1Cc1ccc(C(=O)O)cc1 | – | 0.21 | 0.08
CCCCc1ncc(CC(=O)O)n1Cc1ccccc1Cl | – | – | 22.5
